Experiments:
[1] = biological target: T1, IDO (Homo sapiens, UniProt P14902); assay: hIDO biochemical coupled assay; conditions: 45 μM L-tryptophan, coupled with kynurenine formamidase
Procedure: (§1) Exemplary compounds of the invention were prepared, and tested to determine their effect as TDO and/or IDO inhibitors. Two different assays were employed: 1. a cell-based assay for detecting the effect of test compounds on kynurenine production in two different cancer cell types. This assay utilised cancer cells which expressed either TDO or IDO and as such was used as a means of testing compound activity at these two enzymes in a cell-based context. 2. a TDO and IDO biochemical coupled assay which utilised recombinantly produced and purified TDO and IDO enzymes in combination with the enzyme formamidase. This coupled enzyme system allowed conversion of N-formylkynurenine produced by TDO or IDO activity to kynurenine which was then quantified by fluorescence following addition of Erhlich's Reagent The protocols for these are set out below.
(§2) TDO and IDO Biochemical Coupled Assay
(§3) Recombinant human IDO or TDO was incubated in 50 mM KPO4 (pH 7.0), 0.5 mM EGTA, 0.5 mM EDTA, 0.05% Triton™ X100, 20 mM ascorbate, 10 μM methylene blue, 500 U/ml catalase, 50 μg/ml KynB (kynurenine formamidase). TDO assays were carried out in the presence of 330 μM L-tryptophan, while IDO assays had the addition of 45 μM L-tryptophan. After incubation for 17 minutes at room temperature the reactions were stopped by the addition of Erhlich's reagent and incubated at room temperature for 5 minutes before the fluorescence was read (Ex475, Em530).

[2] = biological target: T2, TDO (Homo sapiens, UniProt P48775); assay: hTDO biochemical coupled assay; conditions: 330 μM L-tryptophan, coupled with kynurenine formamidase
Procedure: as §1, §2, §3

[3] = biological target: T2, TDO; assay: A172 Kynurenine cell based assay; parameters: This assay utilised cancer cells which expressed either TDO or IDO; endogenous in cells; host or cells: A172 (human glioblastoma); conditions: A172 (human glioblastoma) cells, 500 μM L-tryptophan, 48 hours, kynurenine by Erhlich's reagent
Procedure: as §1
(§4) Cell Based Assay for Detection of Kynurenine Produced by TDO and/or IDO
(§5) A172 (human glioblastoma) and SKOV3 (human ovarian adenocarcinoma) cells were seeded in a 96 well plate at 30,000 or 40,000 cells per well respectively in phenol red-free RPMI supplemented with 10% FCS, 2 mM L-glutamine and 500 μM L-tryptophan. IDO expression was induced in the SKOV3 cells by the addition of 500 ng/ml IFN-γ. Cells were incubated at 37° C. with or without the addition of test compound. After 48 hours, the cells were removed by centrifugation and Erhlich's reagent was added to the supernatant. The Erhlich's reagent was incubated for 5 minutes before the absorbance was read at 490 nm.

[4] = biological target: T1, IDO; assay: SKOV3 Kynurenine cell based assay; parameters: IDO expression was induced in the SKOV3 cells by the addition of 500 ng/ml IFN-γ; endogenous in cells; host or cells: SKOV3 (human ovarian adenocarcinoma), induced with IFN-γ; conditions: SKOV3 (human ovarian adenocarcinoma) cells, IDO induced by 500 ng/ml IFN-γ, 500 μM L-tryptophan, 48 hours
Procedure: as §1, §4, §5

T1 sequence (P14902 whole entry): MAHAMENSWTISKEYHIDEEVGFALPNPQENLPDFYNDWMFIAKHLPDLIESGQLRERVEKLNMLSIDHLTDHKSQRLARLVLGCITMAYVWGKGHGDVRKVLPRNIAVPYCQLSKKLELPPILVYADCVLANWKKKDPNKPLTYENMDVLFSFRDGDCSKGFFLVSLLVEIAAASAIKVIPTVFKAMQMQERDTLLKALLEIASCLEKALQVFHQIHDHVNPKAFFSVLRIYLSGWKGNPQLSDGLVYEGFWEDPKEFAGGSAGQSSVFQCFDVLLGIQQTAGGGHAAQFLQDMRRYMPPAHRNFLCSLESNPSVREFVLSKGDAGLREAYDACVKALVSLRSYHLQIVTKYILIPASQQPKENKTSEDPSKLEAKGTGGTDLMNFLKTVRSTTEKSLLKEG
T2 sequence (P48775 whole entry): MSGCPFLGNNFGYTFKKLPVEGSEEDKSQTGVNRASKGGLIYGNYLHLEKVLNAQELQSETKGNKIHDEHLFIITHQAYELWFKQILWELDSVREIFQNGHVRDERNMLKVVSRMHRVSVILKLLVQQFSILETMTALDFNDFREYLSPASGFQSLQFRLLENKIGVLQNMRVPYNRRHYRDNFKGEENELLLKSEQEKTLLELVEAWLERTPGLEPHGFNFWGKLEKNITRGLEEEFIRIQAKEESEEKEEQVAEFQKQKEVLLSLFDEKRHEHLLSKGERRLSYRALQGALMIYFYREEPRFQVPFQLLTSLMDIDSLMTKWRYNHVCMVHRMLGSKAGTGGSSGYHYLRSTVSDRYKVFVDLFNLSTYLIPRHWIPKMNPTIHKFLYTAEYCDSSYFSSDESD

hIDO biochemical assay pIC50 [1] | hTDO biochemical assay pIC50 [2] | A172 Kynurenine cell based assay pIC50 [3] | SKOV3 Kynurenine cell based assay pIC50 [4] | IC50 ([3]; read-out: A172 Kynurenine cell based assay pIC50 (converted)) | IC50 ([4]; read-out: SKOV3 Kynurenine cell based assay pIC50 (converted)) | Compound
++ (++ = pIC50 4.50-5.49) | ++ (++ = pIC50 4.50-5.49) | + (+ = pIC50 4.00-4.49) | + (+ = pIC50 4.00-4.49) | – | – | Cc1cc2c(NS(=O)(=O)c3ccccc3)cccc2nn1 [Compound 1]
+/− (+/− = pIC50 <4.00) | ++ (++ = pIC50 4.50-5.49) | + (+ = pIC50 4.00-4.49) | + (+ = pIC50 4.00-4.49) | – | – | Cc1cc2c(NC(=O)c3ccc4ncccc4c3)cccc2nn1 [Compound 2]
+/− (+/− = pIC50 <4.00) | + (+ = pIC50 4.00-4.49) | + (+ = pIC50 4.00-4.49) | +/− (+/− = pIC50 <4.00) | – | – | Cc1cc2c(NC(=O)c3ccc4ccccc4n3)cccc2nn1 [Compound 3]
++ (++ = pIC50 4.50-5.49) | +++ (+++ = pIC50 ≥5.50) | + (+ = pIC50 4.00-4.49) | +/− (+/− = pIC50 <4.00) | – | – | CC(C)CS(=O)(=O)Nc1cccc2cnccc12 [Compound 4]
+++ (+++ = pIC50 ≥5.50) | +++ (+++ = pIC50 ≥5.50) | + (+ = pIC50 4.00-4.49) | ++ (++ = pIC50 4.50-5.49) | – | – | O=C(Nc1cccc2cnccc12)C1COc2ccccc2C1 (centres unmarked) [Compound 6]
++ (++ = pIC50 4.50-5.49) | ++ (++ = pIC50 4.50-5.49) | +++ (+++ = pIC50 ≥5.50) | ++ (++ = pIC50 4.50-5.49) | – | – | O=S(=O)(Nc1cccc2cnccc12)c1ccccc1 [Compound 9]
++ (++ = pIC50 4.50-5.49) | – | +++ (+++ = pIC50 ≥5.50) | ++ (++ = pIC50 4.50-5.49) | – | – | COc1cccc(S(=O)(=O)Nc2cccc3cnccc23)c1 [Compound 14]
– | – | +/− (+/− = pIC50 <4.00) | + (+ = pIC50 4.00-4.49) | – | – | O=S(=O)(NC1CCCc2cnccc21)c1ccccc1 (centres unmarked) [Compound 49]
– | – | +/− (+/− = pIC50 <4.00) | +++ (+++ = pIC50 ≥5.50) | – | – | O=S(=O)(NC1CCCc2cnccc21)c1ccc(-c2ccccc2)cc1 (centres unmarked) [Compound 50]
– | – | +/− (+/− = pIC50 <4.00) | ++ (++ = pIC50 4.50-5.49) | – | – | O=S(=O)(NC1CCCc2cnccc21)c1ccc(Cl)cc1 (centres unmarked) [Compound 51]
– | – | – | – | > 100 µM | ≤ 3.16 µM | CC(C)Oc1ccc(S(=O)(=O)NC2CCCc3cnccc32)cc1 (centres unmarked) [Compound 52]
– | – | + (+ = pIC50 4.00-4.49) | + (+ = pIC50 4.00-4.49) | – | – | CC(C)Oc1ccc(S(=O)(=O)Nc2cccc3ccncc23)cc1 [Compound 53]
– | – | + (+ = pIC50 4.00-4.49) | + (+ = pIC50 4.00-4.49) | – | – | O=S(=O)(Nc1cccc2ccncc12)c1ccc(-c2ccccc2)cc1 [Compound 54]
– | – | + (+ = pIC50 4.00-4.49) | ++ (++ = pIC50 4.50-5.49) | – | – | O=S(=O)(Nc1cccc2ccncc12)c1ccc(Cl)cc1 [Compound 55]
